Measured values reported in paper PMC3734177, “Design, Synthesis, Evaluation and Thermodynamics of 1-Substituted Pyridylimidazo[1,5-a]Pyridine Derivatives as Cysteine Protease Inhibitors” (PLoS ONE, 2013).
pIC50, pKi: −log10 of the molar value. Values after ≈ are worked out from the molar mass of the structure shown. Values joined by “and” are separate entries in the source; they are usually repeats but may differ in a detail not shown here. Equal values may be shown once. Read-outs that look alike come from different tables or passages of the source.

Assays:
[1] = test system: Bacillus spp. (ATCC-14593); assay: MIC, micro dilution method; type: cell-based; conditions: ATCC14593; Bacillus sp.
[2] = test system: Staphylococcus aureus (ATCC-25923); assay: MBC, sub cultivation from MIC plate; type: cell-based; conditions: ATCC25923, S. aureus
Description: (§1) After having determined the MICs, bacterial strains from the wells of the microtitre plate with no visible bacterial growth were removed for serial sub cultivation of 2 µl into another new microtitre plate containing 100 µl of broth per well and further incubated for 24 h. The lowest concentration with no visible growth was defined as MBC [28], indicating 99.5% killing of the original inoculum. The absorbance of each well was measured at a wavelength of 620 nm by Microplate Manager 4.0 (Bio-Rad laboratories) and compared with a blank. Solvent (DMSO) was used as a negative control. Three replicates were done for each compound and experiment was repeated two times.

[3] = test system: Group D Streptococci (ATCC-12959); assay: MBC, sub cultivation from MIC plate; type: cell-based
Description: as §1

[4] = test system: Serratia morganii (ATCC- 31665); assay: MBC, sub cultivation from MIC plate; type: cell-based
Description: as §1

[5] = test system: Bacillus spp. (ATCC-14593); assay: MBC, sub cultivation from MIC plate; type: cell-based; conditions: ATCC14593, Bacillus sp.
Description: as §1

[6] = test system: Proteus vulgaris (ATCC-29905); assay: MBC, sub cultivation from MIC plate; type: cell-based; conditions: ATCC29905, P. vulgaris
Description: as §1

[7] = test system: Pseudomonas aeruginosa (ATCC-27853); assay: MBC, sub cultivation from MIC plate; type: cell-based
Description: as §1

[8] = test system: Escherichia coli (ATCC-25922); assay: MBC, sub cultivation from MIC plate; type: cell-based; conditions: ATCC25922, E. coli
Description: as §1

[9] = test system: Staphylococcus aureus (ATCC-25923); assay: MIC, micro dilution method; type: cell-based; conditions: ATCC25923, S. aureus
Description: (§2) The disk diffusion method was used for the preliminary antibacterial evaluation of 1-pyridylimidazo[1,5-a]pyridine derivatives. The MIC50 of these derivatives, showing inhibition in the preliminary tests, were further determined by the microtitre plate technique using micro dilution method. In brief, the bacterial strains (S. aureus, P. vulgaris, Group D Streptococci, Bacillus sp., E. coli, P. aeruginosa and S. morganii)) were grown and diluted to 2×10^5 colony-forming units (CFU)/ml in sodium phosphate buffer (SPB) containing 0.03% Luria–Bertani (LB) broth. The synthesized derivatives were dissolved in DMSO and their serial dilution was performed in 50 µL of LB medium in 96-well microtitre plate to achieve the required concentrations (0.1–10 µg/ml) with bacterial inoculums (5×10^4 CFU per well). DMSO was taken as negative control and Ceftriaxone and clotrimazole were taken as positive control. After incubation at 37°C overnight, the MICs were taken as the lowest inhibitor concentration at which the bacterial growth was inhibited. The average of three values was calculated and that was the MIC for the test material and bacterial strain. […]

[10] = test system: Bacillus spp. (ATCC-14593); assay: MIC, micro dilution method; type: cell-based; conditions: ATCC14593; Bacillus sp.; remark: listed apart in the source
Description: as §2

[11] = test system: Proteus vulgaris (ATCC-29905); assay: MIC, micro dilution method; type: cell-based; conditions: ATCC29905, P. vulgaris
Description: as §2

[12] = test system: Pseudomonas aeruginosa (ATCC-27853); assay: MIC, micro dilution method; type: cell-based; conditions: ATCC27853
Description: as §2

[13] = test system: Escherichia coli (ATCC-25922); assay: MIC, micro dilution method; type: cell-based; conditions: ATCC25922, E. coli
Description: as §2

[14] = test system: Group D Streptococci (ATCC-12959); assay: MIC, micro dilution method; type: cell-based
Description: (§3) The disk diffusion method was used for the preliminary antibacterial evaluation of 1-pyridylimidazo[1,5-a]pyridine derivatives. The MIC50 of these derivatives, showing inhibition in the preliminary tests, were further determined by the microtitre plate technique using micro dilution method. In brief, the bacterial strains (S. aureus, P. vulgaris, Group D Streptococci, Bacillus sp., E. coli, P. aeruginosa and S. morganii)) were grown and diluted to 2×10^5 colony-forming units (CFU)/ml in sodium phosphate buffer (SPB) containing 0.03% Luria–Bertani (LB) broth. The synthesized derivatives were dissolved in DMSO and their serial dilution was performed in 50 µL of LB medium in 96-well microtitre plate to achieve the required concentrations (0.1–10 µg/ml) with bacterial inoculums (5×10^4 CFU per well). DMSO was taken as negative control and Ceftriaxone and clotrimazole were taken as positive control. After incubation at 37°C overnight, the MICs were taken as the lowest inhibitor concentration at which the bacterial growth was inhibited. The average of three values was calculated and that was the MIC for the test material and bacterial strain.
(§4) For the agar plate count method, 25 µL aliquots of bacteria at 1×10^5 CFU/ml in SPB containing 0.03% LB broth were incubated with 25 µL of diluted compounds for 2 h at 37°C. The mixtures of bacteria and compounds were serially diluted 10-fold with SPB and plated on LB plates that were incubated at 37°C overnight. Bacterial colonies were enumerated the following day.

[15] = test system: Serratia morganii (ATCC- 31665); assay: MIC, micro dilution method; type: cell-based; conditions: ATCC31665
Description: as §3, §4

papain [16] = molecular target: T1, papain (Carica papaya, UniProt P00784); assay: Thermodynamics analysis of papain inhibition (Van't Hoff); type: biochemical; conditions: Value at 37°C
T1 construct: To solutions of active papain (final concentration: 0.05 mM); purchased Sigma Chemical Co., St. Louis, MO, USA
T1 sequence (P00784 134-345): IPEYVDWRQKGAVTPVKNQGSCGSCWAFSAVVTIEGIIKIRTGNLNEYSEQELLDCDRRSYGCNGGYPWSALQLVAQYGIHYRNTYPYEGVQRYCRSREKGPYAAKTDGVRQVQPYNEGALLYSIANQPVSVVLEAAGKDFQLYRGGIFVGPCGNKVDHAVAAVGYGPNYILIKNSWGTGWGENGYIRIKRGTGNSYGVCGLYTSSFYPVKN
Description: Free energy changes of inhibition of papain against 1- substituted pyridylimidazo[1,5-a] pyridine derivatives (ΔG) were determined by the equation, [drawing 1] (1)
Temperature dependence of the inhibition constants was used to determine the thermodynamic parameters. Changes in enthalpy (ΔH) were determined from the Van’t Hoff plots by using the equation, [drawing 2] (2)
Where ΔH is enthalpy change, R is gas constant, ΔS is entropy change and T is the absolute temperature. The entropy change was obtained from the equation, [drawing 3] (3)

papain [17] = molecular target: T1, papain; assay: Cysteine protease inhibitory activity, papain with Bz-DL-Arg-pNA substrate; type: biochemical
Description: The capacity of the 1-pyridylimidazo[1,5-a]pyridine derivatives to inhibit cysteine proteases was tested using papain as the model enzyme. The proteolytic activity of the reaction mixtures was determined using Bz-DL-Arg-pNA as the chromogenic substrate. To solutions of active papain (final concentration: 0.05 mM) were added concentrated solutions of the different derivatives to final concentrations of 0.2 mM. […] The same procedure was used at 32°C and 42°C for thermodynamics studies. The kinetic parameters for the substrate hydrolysis were determined by measuring the initial rate of enzymatic activity. The inhibition constant Ki was determined by Dixon method and also by the Lineweaver–Burk equation. The Km value was calculated from the double-reciprocal equation by fitting the data into the computer software Origin 6.1. The Lineweaver–Burk plot was used to determine the types of inhibition. For the kinetic analysis and rate constant determinations, the assays were carried out in triplicate, and the average value was considered throughout this work.

SMILES | MIC90 [1] [µg/mL] | MBC ([2]; read-out: MBC50) [µg/mL] | MBC ([2]; read-out: MBC90) [µg/mL] | MBC ([3]; read-out: MBC50) [µg/mL] | MBC ([3]; read-out: MBC90) [µg/mL] | MBC ([4]; ATCC31665, read-out: MBC50) [µg/mL] | MBC ([4]; ATCC31665, read-out: MBC90) [µg/mL] | MBC ([5]; read-out: MBC50) [µg/mL] | MBC ([5]; read-out: MBC90) [µg/mL] | MBC ([6]; read-out: MBC50) [µg/mL] | MBC ([6]; read-out: MBC90) [µg/mL] | MBC ([7]; ATCC27853, read-out: MBC50) [µg/mL] | MBC ([7]; ATCC27853, read-out: MBC90) [µg/mL] | MBC ([8]; read-out: MBC50) [µg/mL] | MBC ([8]; read-out: MBC90) [µg/mL] | MIC50 [9] [µg/mL] | MIC90 [9] [µg/mL] | MIC50 [10] [µg/mL] | MIC50 [11] [µg/mL] | MIC90 [11] [µg/mL] | also measured
CO/N=C(\C(=O)N[C@@H]1C(=O)N2C(C(=O)O)=C(CSc3nc(=O)c(=O)[nH]n3C)CS[C@H]12)c1csc(N)n1 [Ceftriaxone, reference compound] | 1.6 (≈ 2.89 µM) | 7 (≈ 12.6 µM) | 10 (≈ 18 µM) | 1.5 (≈ 2.7 µM) | 1.9 (≈ 3.43 µM) | 1.7 (≈ 3.07 µM) | 3.3 (≈ 5.95 µM) | 1.7 (≈ 3.07 µM) | 3.1 (≈ 5.59 µM) | 0.9 (≈ 1.62 µM) | 1.2 (≈ 2.16 µM) | 3.2 (≈ 5.77 µM) | 5.5 (≈ 9.92 µM) | 0.14 (≈ 0.252 µM) | 0.24 (≈ 0.433 µM) | 3.8 (≈ 6.85 µM) | 6 (≈ 10.8 µM) | 0.8 (≈ 1.44 µM) | 0.4 (≈ 0.721 µM) | 0.8 (≈ 1.44 µM) | MIC50 [12]: 1.5 µg/mL (≈ 2.7 µM); MIC90 [12]: 3 µg/mL (≈ 5.41 µM); MIC50 [13]: 0.07 µg/mL (≈ 0.126 µM); MIC90 [13]: 0.12 µg/mL (≈ 0.216 µM); MIC50 [14]: 0.08 µg/mL (≈ 0.144 µM); MIC90 [14]: 1.4 µg/mL (≈ 2.52 µM); MIC50 [15]: 0.9 µg/mL (≈ 1.62 µM); MIC90 [15]: 1.5 µg/mL (≈ 2.7 µM)
Clc1ccccc1-c1nc(-c2ccccn2)c2ccccn12 [Compound 3c, 1-(2-pyridyl)-3-(2-chlorophenyl) imidazo[1,5-a]pyridine] | 1.7 (≈ 5.56 µM) | 2.4 (≈ 7.85 µM) | 4.7 (≈ 15.4 µM) | 1.8 (≈ 5.89 µM) | 3.4 (≈ 11.1 µM) | 2.1 (≈ 6.87 µM) | 4.1 (≈ 13.4 µM) | 1.9 (≈ 6.21 µM) | 3.8 (≈ 12.4 µM) | 2.2 (≈ 7.19 µM) | 4.3 (≈ 14.1 µM) | 2.4 (≈ 7.85 µM) | 4 (≈ 13.1 µM) | 1.2 (≈ 3.92 µM) | 2.3 (≈ 7.52 µM) | 1.2 (≈ 3.92 µM) | 2.4 (≈ 7.85 µM) | 0.9 (≈ 2.94 µM) | 1 (≈ 3.27 µM) | 1.9 (≈ 6.21 µM) | ΔG (free energy of binding) (papain [16]): −5.71 Kcalmol^−1 and −5.71(±0.27) Kcalmol^−1; ΔS (entropy change) (papain [16]): 69.88 (±2.65) Jmol-K^−1; pKi (papain [17]; 32°C): 4.03; pKi (papain [17]; 37°C): 4.05; pKi (papain [17]; 42°C): 4.07; Type of inhibition (papain [17]; Lineweaver–Burk plot): Non -Competitive; pIC50 (papain [17]; papain): 4.02; MIC50 [12]: 1.2 µg/mL (≈ 3.92 µM); MIC90 [12]: 2.2 µg/mL (≈ 7.19 µM); MIC50 [13]: 0.6 µg/mL (≈ 1.96 µM); MIC90 [13]: 1.1 µg/mL (≈ 3.6 µM); MIC50 [14]: 0.9 µg/mL (≈ 2.94 µM); MIC90 [14]: 1.7 µg/mL (≈ 5.56 µM); MIC50 [15]: 1 µg/mL (≈ 3.27 µM); MIC90 [15]: 1.9 µg/mL (≈ 6.21 µM)
